Measurements: patent US9783527B2, “Indazole ureas and method of use” (AbbVie Inc., priority 2014, dated 2017)
pIC50: −log10 of the molar value.

What was measured:
human Nav1.8 = human Nav1.8 (Homo sapiens (Human), UniProt Q9Y5Y9); assay: FRET-based membrane potential assay, recombinant human sodium channel Nav1.8; assay type: cell-based; settings: HEK293 cells stably expressing recombinant human Nav1.8; depolarization with veratridine (EC80) + scorpion venom
Description: FRET-Based Membrane Potential Assays.
Recombinant, Human Sodium Channel, Nav1.8.
Two days prior to the experiment, frozen HEK293 cells stably expressing recombinant human Nav1.8 (Essen, Ann Arbor, Mich.) were quickly thawed and plated at 22,500 cells/well in growth medium [MEM (Invitrogen #11095) with 10% FBS (Invitrogen #10082), 1 mM sodium pyruvate (Invitrogen, #C11360), 10 units/mL penicillin/10 U/mL streptomycin/29.2 μg/mL glutamine ((PSG 1%, Invitrogen #10378), 400 μg/mL zeocin (Invitrogen #R250) in black-walled, clear-bottom 384-well poly-D-lysine-coated assay plates (Greiner Bio-One, Frickenhausen, Germany) and incubated in a humidified 5% CO2 incubator at 37° C. On the day of the assay, medium was removed by aspiration, and cells were washed with assay buffer [HBSS (Invitrogen, Carlsbad, Calif.) containing 20 mM HEPES (Invitrogen, Carlsbad, Calif.)]. After washing, 30 μL assay buffer containing the fluorescent voltage-sensor probe CC2-DMPE (Invitrogen, Carlsbad, Calif.) at 20 μM and 0.01% pluronic F-127 (Invitrogen, Carlsbad, Calif.) was added to the cells. Cells were incubated for 40 minutes at room temperature in the dark. Following the incubation, the cells were washed and 30 μL assay buffer containing 2.5 μM DiSBAC2(3) substrate (Invitrogen, Carlsbad, Calif.) and 0.5 mM VABSC-1 (Invitrogen, Carlsbad, Calif.) was added to the cells. The cells were incubated for 60 minutes at room temperature in the dark. Fluorescence readings were made using a FLIPR®^TETRA (Molecular Devices, Sunnyvale Calif.) equipped with voltage-sensor probe optics. The depolarizing agent, veratridine (Sigma-Aldrich, St. Louis, Mo.), was made up at 3× concentrations in assay buffer containing 1 mg/mL scorpion venom (SVqq, from Leiurus quinquestriatus; Sigma-Aldrich, St. Louis, Mo.). The assay agonist/opener concentration was determined each day using a 6-point veratridine concentration curve in duplicate, tested with three concentrations of tetracaine (0.1, 0.06, 0.01 μM all in 0.03% dimethyl sulfoxide) and 0.03% dimethyl sulfoxide control in assay buffer. […] Test compounds in the daughter plate were diluted to (˜3×) solutions in assay buffer immediately before assaying. Using the FLIPR®^TETRA, 20 μL of the (3×) compound solutions were first added to the cells, then 20 μL of depolarizing solution (3×EC80 veratridine+SVqq) were added 3 minutes later to activate the channel. Changes in fluorescence were measured at wavelengths of 440-480 nm and 565-625 nm over the course of the experimental run. Membrane depolarization was expressed as a ratio of the maximum F440-480 nm/F565-625 nm reading above average baseline F440-480 nm/F565-625 nm reading. IC50 values were calculated from curve fits of the ratio data using a four-parameter logistic Hill equation (Accelrys Assay Explorer 3.3 Client, Accelrys, San Diego, Calif.) with percent inhibition plotted against compound concentration.

human Nav1.7 = human Nav1.7 (Homo sapiens (Human), UniProt Q15858); assay: FRET-based membrane potential assay, recombinant human sodium channel Nav1.7; assay type: cell-based; settings: HEK293 cells stably expressing recombinant human Nav1.7; depolarization with veratridine (EC80) + scorpion venom
Chain of human Nav1.7 (Q15858 whole entry): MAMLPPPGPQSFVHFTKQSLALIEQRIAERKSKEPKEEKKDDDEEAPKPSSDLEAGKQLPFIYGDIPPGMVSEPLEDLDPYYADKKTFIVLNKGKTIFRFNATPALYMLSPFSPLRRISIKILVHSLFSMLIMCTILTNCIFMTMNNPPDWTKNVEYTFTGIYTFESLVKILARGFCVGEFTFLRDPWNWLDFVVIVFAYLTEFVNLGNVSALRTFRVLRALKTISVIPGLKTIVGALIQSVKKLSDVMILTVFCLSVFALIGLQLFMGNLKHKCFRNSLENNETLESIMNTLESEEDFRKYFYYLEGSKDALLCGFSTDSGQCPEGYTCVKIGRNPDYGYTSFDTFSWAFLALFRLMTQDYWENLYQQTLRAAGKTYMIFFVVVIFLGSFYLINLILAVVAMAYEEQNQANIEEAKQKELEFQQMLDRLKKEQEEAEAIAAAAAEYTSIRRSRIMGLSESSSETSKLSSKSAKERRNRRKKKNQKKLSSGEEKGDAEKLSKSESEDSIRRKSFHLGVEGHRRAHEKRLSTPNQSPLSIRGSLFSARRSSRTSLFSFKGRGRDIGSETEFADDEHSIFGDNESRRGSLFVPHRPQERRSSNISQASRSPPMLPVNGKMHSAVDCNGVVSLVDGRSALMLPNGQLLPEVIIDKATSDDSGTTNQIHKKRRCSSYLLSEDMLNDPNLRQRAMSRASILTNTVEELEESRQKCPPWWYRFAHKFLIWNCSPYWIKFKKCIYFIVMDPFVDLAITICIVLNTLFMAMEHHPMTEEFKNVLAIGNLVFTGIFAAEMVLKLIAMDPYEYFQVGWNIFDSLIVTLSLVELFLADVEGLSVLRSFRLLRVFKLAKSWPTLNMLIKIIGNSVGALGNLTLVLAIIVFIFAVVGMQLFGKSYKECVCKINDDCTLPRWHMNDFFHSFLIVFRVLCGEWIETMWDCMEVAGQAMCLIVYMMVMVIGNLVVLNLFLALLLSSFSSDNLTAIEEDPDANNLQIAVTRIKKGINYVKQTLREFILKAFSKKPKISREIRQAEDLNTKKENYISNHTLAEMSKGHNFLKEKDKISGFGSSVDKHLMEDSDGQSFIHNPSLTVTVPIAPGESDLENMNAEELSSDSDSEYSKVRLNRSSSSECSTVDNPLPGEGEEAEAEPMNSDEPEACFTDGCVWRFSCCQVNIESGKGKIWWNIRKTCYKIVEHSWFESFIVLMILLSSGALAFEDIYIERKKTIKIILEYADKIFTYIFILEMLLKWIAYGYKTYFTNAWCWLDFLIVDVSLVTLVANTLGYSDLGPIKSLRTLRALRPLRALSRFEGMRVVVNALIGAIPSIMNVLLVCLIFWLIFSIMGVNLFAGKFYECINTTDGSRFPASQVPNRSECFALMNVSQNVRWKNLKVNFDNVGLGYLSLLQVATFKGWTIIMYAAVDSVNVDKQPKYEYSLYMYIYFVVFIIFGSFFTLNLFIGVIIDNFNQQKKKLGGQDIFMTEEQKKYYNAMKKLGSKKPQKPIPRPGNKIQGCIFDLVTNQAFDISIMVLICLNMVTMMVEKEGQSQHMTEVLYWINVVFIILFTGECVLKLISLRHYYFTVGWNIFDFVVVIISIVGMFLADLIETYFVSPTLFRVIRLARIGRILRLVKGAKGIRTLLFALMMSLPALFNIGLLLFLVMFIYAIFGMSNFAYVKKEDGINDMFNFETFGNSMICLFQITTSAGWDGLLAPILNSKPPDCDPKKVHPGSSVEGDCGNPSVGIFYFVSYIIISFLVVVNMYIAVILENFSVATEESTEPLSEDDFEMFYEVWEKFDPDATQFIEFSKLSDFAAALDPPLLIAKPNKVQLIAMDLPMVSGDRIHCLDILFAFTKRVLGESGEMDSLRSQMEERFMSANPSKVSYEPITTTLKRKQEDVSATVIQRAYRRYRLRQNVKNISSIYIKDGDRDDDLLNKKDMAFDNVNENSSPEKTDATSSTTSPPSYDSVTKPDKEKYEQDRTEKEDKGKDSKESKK
In short: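 IC50 derived by four-parameter Hill fit of percent inhibition of depolarization, measured as peak F440-480/F565-625 ratio over baseline. Stable human Nav1.7 HEK293 cells, dye-loaded with CC2-DMPE and DiSBAC2(3)/VABSC-1 at room temperature, received compound 3 min ahead of veratridine (EC80) plus scorpion venom.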

Chain of human Nav1.8 (Q9Y5Y9 whole entry): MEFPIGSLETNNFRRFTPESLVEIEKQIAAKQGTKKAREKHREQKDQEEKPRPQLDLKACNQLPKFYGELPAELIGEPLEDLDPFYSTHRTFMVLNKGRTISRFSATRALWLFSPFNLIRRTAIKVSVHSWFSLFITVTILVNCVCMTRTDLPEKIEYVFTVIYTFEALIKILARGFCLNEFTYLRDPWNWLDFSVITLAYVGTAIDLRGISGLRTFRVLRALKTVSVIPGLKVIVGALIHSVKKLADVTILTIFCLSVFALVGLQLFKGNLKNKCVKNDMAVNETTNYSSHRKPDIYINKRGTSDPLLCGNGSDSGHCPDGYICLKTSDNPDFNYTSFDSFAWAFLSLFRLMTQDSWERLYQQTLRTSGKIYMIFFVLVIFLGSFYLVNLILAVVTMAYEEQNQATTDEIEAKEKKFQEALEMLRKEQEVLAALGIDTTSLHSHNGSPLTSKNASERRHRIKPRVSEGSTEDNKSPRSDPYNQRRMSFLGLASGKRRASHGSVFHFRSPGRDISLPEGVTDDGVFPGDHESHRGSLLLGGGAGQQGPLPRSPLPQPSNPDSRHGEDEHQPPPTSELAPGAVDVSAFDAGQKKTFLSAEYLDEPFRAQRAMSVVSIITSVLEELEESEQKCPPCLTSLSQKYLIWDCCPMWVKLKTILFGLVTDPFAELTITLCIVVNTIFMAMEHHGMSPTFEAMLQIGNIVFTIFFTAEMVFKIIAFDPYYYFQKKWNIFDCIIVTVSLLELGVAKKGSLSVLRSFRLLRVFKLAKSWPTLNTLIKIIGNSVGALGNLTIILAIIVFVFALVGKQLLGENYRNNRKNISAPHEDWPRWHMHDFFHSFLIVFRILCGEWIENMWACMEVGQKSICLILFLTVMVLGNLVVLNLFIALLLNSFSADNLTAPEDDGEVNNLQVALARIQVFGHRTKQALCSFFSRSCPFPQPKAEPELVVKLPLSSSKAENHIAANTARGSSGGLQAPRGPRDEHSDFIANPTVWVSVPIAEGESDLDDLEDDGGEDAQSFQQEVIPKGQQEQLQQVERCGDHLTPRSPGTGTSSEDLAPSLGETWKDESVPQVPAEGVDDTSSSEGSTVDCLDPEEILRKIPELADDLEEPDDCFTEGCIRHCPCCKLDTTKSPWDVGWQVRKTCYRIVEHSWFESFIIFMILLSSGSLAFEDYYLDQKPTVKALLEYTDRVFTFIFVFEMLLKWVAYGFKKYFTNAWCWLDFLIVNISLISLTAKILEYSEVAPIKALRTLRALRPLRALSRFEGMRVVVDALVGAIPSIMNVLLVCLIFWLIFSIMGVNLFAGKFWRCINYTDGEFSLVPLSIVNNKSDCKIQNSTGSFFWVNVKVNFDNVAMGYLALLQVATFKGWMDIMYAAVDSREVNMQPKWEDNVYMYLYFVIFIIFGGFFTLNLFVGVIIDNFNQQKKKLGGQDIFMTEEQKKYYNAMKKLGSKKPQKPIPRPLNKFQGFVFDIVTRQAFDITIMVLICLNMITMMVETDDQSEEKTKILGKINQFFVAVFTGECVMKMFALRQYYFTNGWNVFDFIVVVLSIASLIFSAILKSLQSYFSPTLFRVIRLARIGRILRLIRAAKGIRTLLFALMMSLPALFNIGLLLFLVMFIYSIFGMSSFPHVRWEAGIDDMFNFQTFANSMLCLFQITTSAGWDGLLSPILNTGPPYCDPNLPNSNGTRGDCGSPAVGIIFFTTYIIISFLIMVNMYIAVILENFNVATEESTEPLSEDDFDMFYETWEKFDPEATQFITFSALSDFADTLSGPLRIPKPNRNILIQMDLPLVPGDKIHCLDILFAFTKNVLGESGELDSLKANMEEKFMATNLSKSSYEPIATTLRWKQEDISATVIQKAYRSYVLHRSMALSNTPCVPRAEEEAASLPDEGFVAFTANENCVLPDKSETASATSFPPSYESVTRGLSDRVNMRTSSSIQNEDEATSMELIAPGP

| SMILES | pIC50 (human Nav1.8) | pIC50 (human Nav1.7) |
| --- | --- | --- |
| CCNC(=O)CN1CCN(c2cccc3c2cnn3-c2ccccc2F)C1=O [Example 315, N-ethyl-2-{3-[1-(2-fluorophenyl)-1H-indazol-4-yl]-2-oxoimidazolidin-1-yl}acetamide] | 5.45 | 5.53 |
| CCCS(=O)(=O)N1CC(N2CCN(c3cccc4c3cnn4-c3ccccc3F)C2=O)C1 [Example 274, 1-[1-(2-fluorophenyl)-1H-indazol-4-yl]-3-[1-(propylsulfonyl)azetidin-3-yl]imidazolidin-2-one] | 5.85 | 5.56 |
| CC(C)CO[C@H]1CCC[C@H]1NC(=O)CN1CCN(c2cccc3c2cnn3-c2ccccc2F)C1=O [Example 337, 2-{3-[1-(2-fluorophenyl)-1H-indazol-4-yl]-2-oxoimidazolidin-1-yl}-N-[(1R,2S)-2-isobutoxycyclopentyl]acetamide] | 6.07 | 5.65 |
| COC1CN(C(=O)CN2CCN(c3cccc4c3cnn4-c3ccccc3F)C2=O)C1 [Example 319, 1-[1-(2-fluorophenyl)-1H-indazol-4-yl]-3-[2-(3-methoxyazetidin-1-yl)-2-oxoethyl]imidazolidin-2-one] | 5.52 | 5.50 |
| O=C(CN1CCN(c2cccc3c2cnn3-c2ccccc2F)C1=O)NC1CC(=NO)C1 (stereo not drawn) [Example 354, 2-{3-[1-(2-fluorophenyl)-1H-indazol-4-yl]-2-oxoimidazolidin-1-yl}-N-[3-(hydroxyimino)cyclobutyl]acetamide] | 4.78 | 5.19 |
| O=C(CN1CCN(c2cccc3c2cnn3-c2ccccc2F)C1=O)N1CCC(F)CC1 [Example 69, 1-[1-(2-fluorophenyl)-1H-indazol-4-yl]-3-[2-(4-fluoropiperidin-1-yl)-2-oxoethyl]imidazolidin-2-one] | 5.32 | 5.53 |
| O=C(CN1CCN(c2cccc3c2cnn3-c2ccccc2F)C1=O)N[C@@H]1CCC[C@@H]1O [Example 332, 2-{3-[1-(2-fluorophenyl)-1H-indazol-4-yl]-2-oxoimidazolidin-1-yl}-N-[(1R,2S)-2-hydroxycyclopentyl]acetamide] | 5.58 | 5.29 |
| O=C(CN1CCN(c2cccc3c2cnn3-c2ccccc2F)C1=O)N1CCCCCC1 [Example 303, 1-[2-(azepan-1-yl)-2-oxoethyl]-3-[1-(2-fluorophenyl)-1H-indazol-4-yl]imidazolidin-2-one] | 6.03 | 5.61 |
| CC(C)(C)OC(=O)CCN1CCN(c2cccc3c2cnn3-c2ccccc2F)C1=O [Example 289, tert-butyl 3-{3-[1-(2-fluorophenyl)-1H-indazol-4-yl]-2-oxoimidazolidin-1-yl}propanoate] | 5.69 | 5.57 |
| CC(C)CS(=O)(=O)N1CC(N2CCN(c3cccc4c3cnn4-c3ccccc3F)C2=O)C1 [Example 285, 1-[1-(2-fluorophenyl)-1H-indazol-4-yl]-3-[1-(isobutylsulfonyl)azetidin-3-yl]imidazolidin-2-one] | 5.83 | 5.60 |
| O=C(CN1CCN(c2cccc3c2cnn3-c2ccccc2F)C1=O)N1CC(F)C1 [Example 298, 1-[2-(3-fluoroazetidin-1-yl)-2-oxoethyl]-3-[1-(2-fluorophenyl)-1H-indazol-4-yl]imidazolidin-2-one] | 5.82 | 5.47 |
| O=C(CN1CCN(c2cccc3c2cnn3-c2ccccc2F)C1=O)N[C@H]1CCC[C@@H]1OCc1ccccc1 [Example 334, N-[(1S,2S)-2-(benzyloxy)cyclopentyl]-2-{3-[1-(2-fluorophenyl)-1H-indazol-4-yl]-2-oxoimidazolidin-1-yl}acetamide] | 6.18 | 5.71 |
| CC(C)CO[C@H]1CCCC[C@@H]1N1CCN(c2cccc3c2cnn3-c2ccccc2F)C1=O [Example 280, 1-[1-(2-fluorophenyl)-1H-indazol-4-yl]-3-[(1S,2S)-2-isobutoxycyclohexyl]imidazolidin-2-one] | 4.97 | 6.29 |
| O=C(CN1CCN(c2cccc3c2cnn3-c2ccccc2F)C1=O)NC1CC(F)(F)C1 [Example 310, N-(3,3-difluorocyclobutyl)-2-{3-[1-(2-fluorophenyl)-1H-indazol-4-yl]-2-oxoimidazolidin-1-yl}acetamide] | 6.06 | 5.55 |
| CC(C)(C)n1ncc2c(N3CCN(CC(=O)N4CC[C@H](F)C4)C3=O)cccc21 [Example 306, 1-(1-tert-butyl-1H-indazol-4-yl)-3-{2-[(3S)-3-fluoropyrrolidin-1-yl]-2-oxoethyl}imidazolidin-2-one] | 4.70 | 4.70 |
| O=C(CN1CCN(c2cccc3c2cnn3-c2ccccc2F)C1=O)N1C[C@H]2CC[C@@H](C1)O2 [Example 301, 1-[1-(2-fluorophenyl)-1H-indazol-4-yl]-3-{2-[(1R,5S)-8-oxa-3-azabicyclo[3.2.1]oct-3-yl]-2-oxoethyl}imidazolidin-2-one] | 5.81 | 5.50 |
| O=C(CN1CCN(c2cccc3c2cnn3-c2ccccc2F)C1=O)NC1CCOCC1 [Example 320, 2-{3-[1-(2-fluorophenyl)-1H-indazol-4-yl]-2-oxoimidazolidin-1-yl}-N-(tetrahydro-2H-pyran-4-yl)acetamide] | 5.00 | 4.77 |
| O=C(CN1CCN(c2cccc3c2cnn3-c2ccccc2F)C1=O)N1C[C@H]2CCC[C@H]2C1 [Example 342, 1-[1-(2-fluorophenyl)-1H-indazol-4-yl]-3-{2-[(3aR,6aS)-hexahydrocyclopenta[c]pyrrol-2(1H)-yl]-2-oxoethyl}imidazolidin-2-one] | 6.13 | 5.66 |
| O=C(CCN1CCN(c2cccc3c2cnn3-c2ccccc2F)C1=O)N1CCC[C@@H](F)C1 [Example 317, 1-[1-(2-fluorophenyl)-1H-indazol-4-yl]-3-{3-[(3R)-3-fluoropiperidin-1-yl]-3-oxopropyl}imidazolidin-2-one] | 5.89 | 5.61 |
| O=C1N(c2cccc3c2cnn3-c2ccccc2F)CCN1C1CN(S(=O)(=O)CC(F)(F)F)C1 [Example 284, 1-[1-(2-fluorophenyl)-1H-indazol-4-yl]-3-{1-[(2,2,2-trifluoroethyl)sulfonyl]azetidin-3-yl}imidazolidin-2-one] | 5.92 | 5.61 |
| CON=C1CC(NC(=O)CN2CCN(c3cccc4c3cnn4-c3ccccc3F)C2=O)C1 (stereo not drawn) [Example 355, 2-{3-[1-(2-fluorophenyl)-1H-indazol-4-yl]-2-oxoimidazolidin-1-yl}-N-[3-(methoxyimino)cyclobutyl]acetamide] | 5.39 | 5.03 |
| O=C(CN1CCN(c2cccc3c2cnn3-c2ccccc2F)C1=O)NC1CCC1 [Example 322, N-cyclobutyl-2-{3-[1-(2-fluorophenyl)-1H-indazol-4-yl]-2-oxoimidazolidin-1-yl}acetamide] | 5.72 | 6.01 |
| O=C1N(c2cccc3c2cnn3-c2ccccc2F)CCN1[C@H]1CCCC[C@@H]1O [Example 276, 1-[1-(2-fluorophenyl)-1H-indazol-4-yl]-3-[(1S,2S)-2-hydroxycyclohexyl]imidazolidin-2-one] | 5.19 | 4.82 |
| O=C1N(c2cccc3c2cnn3-c2ccccc2F)CCN1C1CN(S(=O)(=O)CC2CC2(Cl)Cl)C1 (stereo not drawn) [Example 282, 1-(1-{[(2,2-dichlorocyclopropyl)methyl]sulfonyl}azetidin-3-yl)-3-[1-(2-fluorophenyl)-1H-indazol-4-yl]imidazolidin-2-one] | 5.85 | 5.60 |
